Some targets named below: CaMK2b (Homo sapiens, UniProt Q13554); DYRK1A (Homo sapiens, UniProt Q13627); Wnk1 (Homo sapiens, UniProt Q9H4A3); FGFR1 (Homo sapiens, UniProt P11362); DAPK3 (Homo sapiens, UniProt O43293); CK2a2 (Homo sapiens, UniProt P19784); RSK1b (Homo sapiens, UniProt Q15418); CaMK2d (Homo sapiens, UniProt Q13557).
Common to all, as to experiment: biochemical
A further assay has as its target T1, PHKG2 (Homo sapiens, UniProt P15735).
T1 sequence (P15735 1-406): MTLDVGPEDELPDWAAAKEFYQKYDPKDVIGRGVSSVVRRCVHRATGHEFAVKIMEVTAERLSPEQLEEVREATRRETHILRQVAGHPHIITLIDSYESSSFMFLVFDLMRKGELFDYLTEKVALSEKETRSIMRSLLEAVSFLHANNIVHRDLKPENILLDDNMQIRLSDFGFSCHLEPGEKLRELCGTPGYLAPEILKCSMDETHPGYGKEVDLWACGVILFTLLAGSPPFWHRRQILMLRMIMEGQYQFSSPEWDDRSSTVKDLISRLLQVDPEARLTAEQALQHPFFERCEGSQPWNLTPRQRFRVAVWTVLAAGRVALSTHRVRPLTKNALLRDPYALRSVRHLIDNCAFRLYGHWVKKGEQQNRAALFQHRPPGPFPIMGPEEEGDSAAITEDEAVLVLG

The target in a further assay is T2, DRAK2 (Homo sapiens, UniProt O94768).
T2 sequence (O94768 1-372): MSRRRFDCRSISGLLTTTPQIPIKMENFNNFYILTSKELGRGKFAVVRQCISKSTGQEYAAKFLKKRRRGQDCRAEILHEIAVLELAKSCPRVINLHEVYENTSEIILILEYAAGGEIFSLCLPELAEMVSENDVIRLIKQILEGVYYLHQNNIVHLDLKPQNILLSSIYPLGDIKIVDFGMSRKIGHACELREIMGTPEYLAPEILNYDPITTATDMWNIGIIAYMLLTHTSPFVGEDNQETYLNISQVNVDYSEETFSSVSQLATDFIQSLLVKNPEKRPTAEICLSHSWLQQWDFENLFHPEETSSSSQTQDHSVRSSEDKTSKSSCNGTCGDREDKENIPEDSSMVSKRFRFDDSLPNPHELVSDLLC

A further assay deals with T3, FECH (Homo sapiens, UniProt P22830).
T3 sequence (P22830 1-423): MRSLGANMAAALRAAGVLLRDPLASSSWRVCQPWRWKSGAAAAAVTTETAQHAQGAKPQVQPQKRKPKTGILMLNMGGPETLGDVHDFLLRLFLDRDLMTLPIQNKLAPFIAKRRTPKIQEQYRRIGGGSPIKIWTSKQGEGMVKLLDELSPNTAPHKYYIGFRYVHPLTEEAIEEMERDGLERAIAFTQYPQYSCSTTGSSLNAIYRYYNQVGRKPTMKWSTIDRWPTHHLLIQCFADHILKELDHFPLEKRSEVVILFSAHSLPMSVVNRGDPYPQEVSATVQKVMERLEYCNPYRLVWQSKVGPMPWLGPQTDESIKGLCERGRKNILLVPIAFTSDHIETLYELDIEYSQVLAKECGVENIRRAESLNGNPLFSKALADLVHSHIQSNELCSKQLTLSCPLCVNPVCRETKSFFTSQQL

In the next assay the target is T4, NQO2A (Homo sapiens, UniProt P16083).
T4 sequence (P16083 1-231): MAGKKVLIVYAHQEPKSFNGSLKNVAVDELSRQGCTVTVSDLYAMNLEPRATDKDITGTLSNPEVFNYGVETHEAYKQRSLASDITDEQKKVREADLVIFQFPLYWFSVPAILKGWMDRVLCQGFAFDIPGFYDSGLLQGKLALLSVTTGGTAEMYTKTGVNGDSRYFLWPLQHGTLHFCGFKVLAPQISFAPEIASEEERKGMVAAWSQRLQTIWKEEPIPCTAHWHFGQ

Each structure is given as a SMILES string. Like-named read-outs stand apart in the source and are kept apart here.

This passage reports ΔTm results from paper doi:10.1101/2023.03.24.534094v2 (biorxiv, 2023).

Chain of DAPK3 (O43293 whole entry): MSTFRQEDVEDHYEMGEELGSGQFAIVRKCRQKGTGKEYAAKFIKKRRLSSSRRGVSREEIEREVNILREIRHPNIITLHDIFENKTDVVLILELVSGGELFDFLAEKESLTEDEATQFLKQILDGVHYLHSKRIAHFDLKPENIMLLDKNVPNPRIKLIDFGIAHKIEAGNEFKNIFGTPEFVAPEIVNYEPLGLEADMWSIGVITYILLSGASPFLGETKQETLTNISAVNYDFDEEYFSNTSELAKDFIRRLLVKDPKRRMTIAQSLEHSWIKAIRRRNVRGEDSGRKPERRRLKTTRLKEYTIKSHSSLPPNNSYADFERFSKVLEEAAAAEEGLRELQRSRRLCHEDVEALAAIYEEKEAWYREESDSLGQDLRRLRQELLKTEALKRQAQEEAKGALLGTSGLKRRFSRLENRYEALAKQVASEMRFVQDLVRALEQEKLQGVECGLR
Chain of Wnk1 (Q9H4A3 whole entry): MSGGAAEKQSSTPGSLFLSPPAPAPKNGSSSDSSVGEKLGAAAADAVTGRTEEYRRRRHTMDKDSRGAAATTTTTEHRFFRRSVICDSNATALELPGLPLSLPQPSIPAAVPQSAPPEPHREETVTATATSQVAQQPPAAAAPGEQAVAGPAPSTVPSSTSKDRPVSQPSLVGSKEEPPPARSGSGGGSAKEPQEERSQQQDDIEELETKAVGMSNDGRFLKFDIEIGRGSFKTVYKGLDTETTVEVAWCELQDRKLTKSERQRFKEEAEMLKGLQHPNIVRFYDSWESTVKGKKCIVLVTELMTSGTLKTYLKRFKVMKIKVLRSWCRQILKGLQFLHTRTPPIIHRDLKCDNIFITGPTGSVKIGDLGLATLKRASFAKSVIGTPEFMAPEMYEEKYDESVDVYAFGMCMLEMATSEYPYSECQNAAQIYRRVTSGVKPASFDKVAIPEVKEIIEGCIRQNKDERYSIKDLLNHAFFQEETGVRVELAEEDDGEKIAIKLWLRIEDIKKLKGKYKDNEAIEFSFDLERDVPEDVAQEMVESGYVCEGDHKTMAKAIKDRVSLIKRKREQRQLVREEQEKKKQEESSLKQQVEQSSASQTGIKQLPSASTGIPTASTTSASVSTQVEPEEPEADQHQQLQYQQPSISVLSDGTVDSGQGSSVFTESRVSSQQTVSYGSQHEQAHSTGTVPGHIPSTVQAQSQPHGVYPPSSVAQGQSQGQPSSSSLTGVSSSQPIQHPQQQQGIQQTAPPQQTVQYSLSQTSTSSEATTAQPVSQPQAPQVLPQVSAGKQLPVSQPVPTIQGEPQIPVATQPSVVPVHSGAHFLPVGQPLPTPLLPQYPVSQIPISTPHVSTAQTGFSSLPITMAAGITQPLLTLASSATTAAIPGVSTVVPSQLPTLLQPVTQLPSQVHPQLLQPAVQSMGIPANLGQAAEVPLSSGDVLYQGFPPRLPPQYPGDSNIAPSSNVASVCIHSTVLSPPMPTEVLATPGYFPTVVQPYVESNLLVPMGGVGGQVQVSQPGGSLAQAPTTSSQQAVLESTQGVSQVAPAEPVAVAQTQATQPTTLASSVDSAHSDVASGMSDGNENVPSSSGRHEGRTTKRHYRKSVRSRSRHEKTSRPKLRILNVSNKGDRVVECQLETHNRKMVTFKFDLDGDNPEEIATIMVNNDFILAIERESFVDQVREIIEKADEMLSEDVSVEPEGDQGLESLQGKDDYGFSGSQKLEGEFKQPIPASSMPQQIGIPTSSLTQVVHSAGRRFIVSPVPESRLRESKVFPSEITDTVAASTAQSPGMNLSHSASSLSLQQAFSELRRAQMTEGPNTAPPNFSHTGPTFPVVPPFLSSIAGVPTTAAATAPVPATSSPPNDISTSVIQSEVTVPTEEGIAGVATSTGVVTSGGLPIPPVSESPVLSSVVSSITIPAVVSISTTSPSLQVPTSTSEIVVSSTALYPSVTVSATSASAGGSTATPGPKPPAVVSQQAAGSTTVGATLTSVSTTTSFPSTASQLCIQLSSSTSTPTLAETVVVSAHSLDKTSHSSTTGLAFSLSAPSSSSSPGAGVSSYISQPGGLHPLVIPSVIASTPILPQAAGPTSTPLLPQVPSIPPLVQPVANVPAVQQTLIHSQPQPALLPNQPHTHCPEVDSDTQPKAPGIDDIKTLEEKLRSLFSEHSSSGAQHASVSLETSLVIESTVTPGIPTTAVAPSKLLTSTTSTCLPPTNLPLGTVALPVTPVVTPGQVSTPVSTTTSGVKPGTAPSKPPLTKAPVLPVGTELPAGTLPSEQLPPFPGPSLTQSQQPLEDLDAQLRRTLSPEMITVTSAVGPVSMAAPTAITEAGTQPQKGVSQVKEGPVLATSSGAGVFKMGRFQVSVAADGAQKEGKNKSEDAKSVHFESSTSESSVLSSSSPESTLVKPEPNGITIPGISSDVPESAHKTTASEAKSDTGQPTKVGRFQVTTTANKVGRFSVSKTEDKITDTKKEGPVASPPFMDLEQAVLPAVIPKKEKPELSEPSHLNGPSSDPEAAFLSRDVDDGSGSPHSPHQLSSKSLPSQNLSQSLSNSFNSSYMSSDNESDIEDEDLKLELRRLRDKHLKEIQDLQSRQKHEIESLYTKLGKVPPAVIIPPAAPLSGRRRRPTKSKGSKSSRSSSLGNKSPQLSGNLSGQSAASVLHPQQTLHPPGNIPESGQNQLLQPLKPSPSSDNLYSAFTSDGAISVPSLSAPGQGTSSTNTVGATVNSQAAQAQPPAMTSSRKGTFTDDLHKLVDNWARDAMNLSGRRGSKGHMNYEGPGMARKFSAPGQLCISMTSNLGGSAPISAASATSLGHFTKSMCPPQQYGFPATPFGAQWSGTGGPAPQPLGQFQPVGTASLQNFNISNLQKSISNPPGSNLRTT
Chain of CK2a2 (P19784 whole entry): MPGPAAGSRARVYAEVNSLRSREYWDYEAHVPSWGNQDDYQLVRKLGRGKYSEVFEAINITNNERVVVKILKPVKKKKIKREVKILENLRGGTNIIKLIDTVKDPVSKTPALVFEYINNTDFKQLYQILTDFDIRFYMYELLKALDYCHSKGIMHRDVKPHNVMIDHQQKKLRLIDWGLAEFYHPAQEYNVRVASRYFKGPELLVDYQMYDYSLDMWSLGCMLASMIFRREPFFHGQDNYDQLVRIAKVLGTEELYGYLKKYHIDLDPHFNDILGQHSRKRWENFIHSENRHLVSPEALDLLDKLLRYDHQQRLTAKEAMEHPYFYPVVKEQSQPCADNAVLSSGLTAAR
Chain of FGFR1 (P11362 whole entry): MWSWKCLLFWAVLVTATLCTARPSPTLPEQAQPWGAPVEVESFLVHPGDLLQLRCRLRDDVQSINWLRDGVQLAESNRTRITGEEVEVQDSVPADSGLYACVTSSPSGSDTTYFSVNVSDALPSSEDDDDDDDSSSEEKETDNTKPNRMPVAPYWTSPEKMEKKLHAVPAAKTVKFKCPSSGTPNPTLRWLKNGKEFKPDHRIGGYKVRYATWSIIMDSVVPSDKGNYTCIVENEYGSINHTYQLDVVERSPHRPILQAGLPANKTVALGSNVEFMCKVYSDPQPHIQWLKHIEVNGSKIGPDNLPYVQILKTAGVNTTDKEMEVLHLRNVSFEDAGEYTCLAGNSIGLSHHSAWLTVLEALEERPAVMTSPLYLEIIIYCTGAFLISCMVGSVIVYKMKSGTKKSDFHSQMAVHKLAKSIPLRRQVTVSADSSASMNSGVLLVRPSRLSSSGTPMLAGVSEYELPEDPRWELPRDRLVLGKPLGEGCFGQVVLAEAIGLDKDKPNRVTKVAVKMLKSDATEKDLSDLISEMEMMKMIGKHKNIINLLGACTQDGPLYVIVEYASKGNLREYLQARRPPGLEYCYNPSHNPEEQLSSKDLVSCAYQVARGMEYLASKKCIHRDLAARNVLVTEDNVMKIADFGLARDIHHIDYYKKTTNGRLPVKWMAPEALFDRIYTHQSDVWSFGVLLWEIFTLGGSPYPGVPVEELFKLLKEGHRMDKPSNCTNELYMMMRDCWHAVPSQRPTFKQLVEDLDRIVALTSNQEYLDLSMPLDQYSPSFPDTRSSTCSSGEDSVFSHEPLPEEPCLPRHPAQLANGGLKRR
Chain of RSK1b (Q15418 whole entry): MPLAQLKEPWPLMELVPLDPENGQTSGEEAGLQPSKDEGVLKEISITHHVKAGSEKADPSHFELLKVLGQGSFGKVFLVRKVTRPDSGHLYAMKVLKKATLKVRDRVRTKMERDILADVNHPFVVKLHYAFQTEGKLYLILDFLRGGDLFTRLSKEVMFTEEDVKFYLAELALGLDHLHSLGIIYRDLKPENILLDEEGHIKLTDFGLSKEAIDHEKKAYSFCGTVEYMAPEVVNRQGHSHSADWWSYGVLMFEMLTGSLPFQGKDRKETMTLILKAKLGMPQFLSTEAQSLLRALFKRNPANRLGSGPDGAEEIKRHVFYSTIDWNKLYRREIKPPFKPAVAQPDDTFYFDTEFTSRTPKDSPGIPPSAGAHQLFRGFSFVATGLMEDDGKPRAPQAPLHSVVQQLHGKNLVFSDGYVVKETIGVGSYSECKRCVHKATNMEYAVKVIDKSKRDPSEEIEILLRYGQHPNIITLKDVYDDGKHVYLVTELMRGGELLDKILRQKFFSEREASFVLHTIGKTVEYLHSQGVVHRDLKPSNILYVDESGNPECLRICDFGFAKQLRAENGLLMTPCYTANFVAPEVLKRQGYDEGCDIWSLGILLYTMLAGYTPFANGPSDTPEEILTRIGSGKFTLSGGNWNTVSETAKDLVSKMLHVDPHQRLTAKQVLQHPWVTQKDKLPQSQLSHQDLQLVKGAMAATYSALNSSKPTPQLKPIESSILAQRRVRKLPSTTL

With `CNc1ncc2cc(-c3cc(C(F)(F)F)ccc3Cl)c(=O)n(CCCCN)c2n1` [compound 9, 8-(4-Aminobutyl)-6-(2-chloro-5-(trifluoromethyl)phenyl)-2-(methylamino)pyrido[2,3-d]pyrimidin-7(8H)-one], the ΔTm at 10 µM at CaMK2b (read-out: dTm 9) was 0.1 °C; on DYRK1A (read-out: dTm 9) it was -0.5 °C; on Wnk1 (read-out: dTm 9), 0.1 °C; at PHKG2 (read-out: dTm 9), 0.5 °C; on FGFR1 (read-out: dTm 9) it was 1.2 °C; on DRAK2 (read-out: dTm 9), 0 °C. In addition, the ΔTm at 10 µM is -1.7 °C at FECH (read-out: dTm 9); -0.1 °C at DAPK3 (read-out: dTm 9); 0 °C on CK2a2 (read-out: dTm 9); -0.3 °C on NQO2A (read-out: dTm 9); 4.5 °C on RSK1b (read-out: dTm 9); 0.2 °C on CaMK2d (read-out: dTm 9).

Consider `CNc1ncc2cc(-c3cc(Cl)ccc3Cl)c(=O)n(CCCCN)c2n1` [compound 8, 8-(4-Aminobutyl)-6-(2,5-dichlorophenyl)-2-(methylamino)pyrido[2,3-d]pyrimidin-7(8H)-one], for which the ΔTm at 10 µM on CaMK2b (read-out: dTm 8) is 0.2 °C; at DYRK1A (read-out: dTm 8), -0.5 °C; at Wnk1 (read-out: dTm 8), 0.3 °C; on PHKG2 (read-out: dTm 8) it was 1.5 °C; on FGFR1 (read-out: dTm 8), 3.3 °C; at DRAK2 (read-out: dTm 8), 0.1 °C. Moreover, the ΔTm at 10 µM at FECH (read-out: dTm 8) is -1.7 °C; at DAPK3 (read-out: dTm 8), -0.1 °C; on CK2a2 (read-out: dTm 8), 0 °C; at NQO2A (read-out: dTm 8) it was 0.5 °C; on RSK1b (read-out: dTm 8), 6.9 °C; on CaMK2d (read-out: dTm 8), 0.4 °C.

In the case of `CNc1ncc2cc(-c3cc(Br)ccc3Br)c(=O)n(CCCCN)c2n1` [compound 11, 8-(4-Aminobutyl)-6-(2,5-dibromophenyl)-2-(methylamino)pyrido[2,3-d]pyrimidin-7(8H)-one], the ΔTm at 10 µM on CaMK2b (read-out: dTm 11) was 0.3 °C; at DYRK1A (read-out: dTm 11), -0.3 °C; at Wnk1 (read-out: dTm 11) it was 0.4 °C; on PHKG2 (read-out: dTm 11), 0.6 °C; at FGFR1 (read-out: dTm 11), 3 °C; at DRAK2 (read-out: dTm 11), 0 °C. The ΔTm at 10 µM on FECH (read-out: dTm 11) is -1.6 °C; at DAPK3 (read-out: dTm 11), -0.2 °C; at CK2a2 (read-out: dTm 11), 0.1 °C; on NQO2A (read-out: dTm 11), 0.3 °C; on RSK1b (read-out: dTm 11) it was 5.8 °C; at CaMK2d (read-out: dTm 11), 0.2 °C.

On to `CNc1ncc2cc(-c3cc(F)c(-c4cccc(C)n4)cc3F)c(=O)n(CCCCN)c2n1` [compound 12, 8-(4-Aminobutyl)-6-(2,5-difluoro-4-(6-methylpyridin-2-yl)phenyl)-2-(methylamino)pyrido[2,3-d]pyrimidin-7(8H)-one], for which the ΔTm at 10 µM on CaMK2b (read-out: dTm 12) is -0.4 °C; on DYRK1A (read-out: dTm 12) it was 0.1 °C; at Wnk1 (read-out: dTm 12), 1 °C; on PHKG2 (read-out: dTm 12) it was 1.5 °C; at FGFR1 (read-out: dTm 12), 0.6 °C; at DRAK2 (read-out: dTm 12), 5.7 °C. Besides, the ΔTm at 10 µM on FECH (read-out: dTm 12) was -0.6 °C; on DAPK3 (read-out: dTm 12) it was 0.3 °C; at CK2a2 (read-out: dTm 12) it was -1 °C; on NQO2A (read-out: dTm 12), 0.2 °C; on RSK1b (read-out: dTm 12), -0.2 °C; on CaMK2d (read-out: dTm 12), -0.2 °C.

With `CNc1ncc2cc(-c3cc(Cl)ccc3Br)c(=O)n(CCCCN)c2n1` [compound 10, 8-(4-Aminobutyl)-6-(2-bromo-5-chlorophenyl)-2-(methylamino)pyrido[2,3-d]pyrimidin-7(8H)-one], the ΔTm at 10 µM on CaMK2b (read-out: dTm 10) was 0.3 °C; at DYRK1A (read-out: dTm 10), -0.6 °C; at Wnk1 (read-out: dTm 10), 0.3 °C; at PHKG2 (read-out: dTm 10) it was 1.3 °C; on FGFR1 (read-out: dTm 10), 2.9 °C; at DRAK2 (read-out: dTm 10), 0.1 °C. Besides, the ΔTm at 10 µM was -1.7 °C at FECH (read-out: dTm 10); 0.1 °C at DAPK3 (read-out: dTm 10); 0.2 °C on CK2a2 (read-out: dTm 10); 0.6 °C at NQO2A (read-out: dTm 10); 6.2 °C at RSK1b (read-out: dTm 10); 0.5 °C at CaMK2d (read-out: dTm 10).
